# Source: ChEMBL document CHEMBL1799982, “Synthesis, protein kinase inhibitory potencies, and in vitro antiproliferative activities of meridianin derivatives” (J Med Chem, 2011)
# Legend:
# [1] = system: PC-3; experiment: Antiproliferative activity against human PC3 cells after 48 hrs by resazurin reduction test; conditions: PC-3, 48 h
# [2] = system: HT-22; experiment: Antiproliferative activity against mouse HT22 cells by MTS reduction assay
# [3] = target: Glycogen synthase kinase-3 (Sus scrofa, UniProt B2LUN4+I6LNT8); experiment: Inhibition of pig brain GSK-3alpha/beta using YRRAAVPPSPSLSRHSSPHQSpEDEEE as substrate
# [4] = target: Dual specificity tyrosine-phosphorylation-regulated kinase 1A (Rattus norvegicus, UniProt Q63470); experiment: Inhibition of rat recombinant GST-tagged DYRK1A using myelin protein as substrate and [gamma32]-ATP after 30 mins by scintillation counting
# [5] = system: IMR-32; experiment: Antiproliferative activity against human IMR32 cells by MTS reduction assay
# [6] = system: MCF7; experiment: Antiproliferative activity against human MCF7 cells after 48 hrs by resazurin reduction test; conditions: MCF7, 48 h
# [7] = system: PA-1; experiment: Antiproliferative activity against human PA1 cells after 48 hrs by resazurin reduction test; type: functional, cell-based; conditions: PA-1, 48 h
# [8] = target: Dual specificity protein kinase CLK1 (Homo sapiens, UniProt P49759)
# Chain of Dual specificity protein kinase CLK1 (P49759 whole entry): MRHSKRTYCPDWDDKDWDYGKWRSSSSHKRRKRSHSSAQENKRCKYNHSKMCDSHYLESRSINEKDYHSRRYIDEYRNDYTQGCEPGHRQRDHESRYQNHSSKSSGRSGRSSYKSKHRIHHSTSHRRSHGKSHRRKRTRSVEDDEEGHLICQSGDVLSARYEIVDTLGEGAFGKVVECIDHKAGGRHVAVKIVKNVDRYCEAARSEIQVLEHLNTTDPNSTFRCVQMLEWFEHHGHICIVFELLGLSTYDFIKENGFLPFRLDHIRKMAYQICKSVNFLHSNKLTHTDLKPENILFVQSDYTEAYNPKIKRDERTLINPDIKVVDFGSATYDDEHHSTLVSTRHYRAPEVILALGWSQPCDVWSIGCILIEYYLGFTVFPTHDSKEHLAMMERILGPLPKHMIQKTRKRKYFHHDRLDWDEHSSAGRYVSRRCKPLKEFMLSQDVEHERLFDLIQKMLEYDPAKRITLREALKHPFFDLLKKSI
# [9] = target: Cyclin-dependent kinase 5/CDK5 activator 1 (Homo sapiens, UniProt Q00535); experiment: Inhibition of human recombinant CDK5/p25 using Histone H1 and [gamma32]-ATP after 30 mins by scintillation counting; type: protein-complex assay
# Chain of Cyclin-dependent kinase 5/CDK5 activator 1 (Q00535 whole entry): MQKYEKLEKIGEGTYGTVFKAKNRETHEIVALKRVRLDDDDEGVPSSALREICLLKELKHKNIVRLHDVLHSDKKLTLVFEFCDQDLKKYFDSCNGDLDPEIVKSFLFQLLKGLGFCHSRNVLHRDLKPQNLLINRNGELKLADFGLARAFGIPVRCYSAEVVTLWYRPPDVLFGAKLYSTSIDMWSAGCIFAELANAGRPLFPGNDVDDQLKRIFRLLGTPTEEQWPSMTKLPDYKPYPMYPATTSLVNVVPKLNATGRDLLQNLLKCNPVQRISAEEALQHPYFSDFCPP
# Chain of Cyclin-dependent kinase 5/CDK5 activator 1 (Q15078 whole entry, further chain): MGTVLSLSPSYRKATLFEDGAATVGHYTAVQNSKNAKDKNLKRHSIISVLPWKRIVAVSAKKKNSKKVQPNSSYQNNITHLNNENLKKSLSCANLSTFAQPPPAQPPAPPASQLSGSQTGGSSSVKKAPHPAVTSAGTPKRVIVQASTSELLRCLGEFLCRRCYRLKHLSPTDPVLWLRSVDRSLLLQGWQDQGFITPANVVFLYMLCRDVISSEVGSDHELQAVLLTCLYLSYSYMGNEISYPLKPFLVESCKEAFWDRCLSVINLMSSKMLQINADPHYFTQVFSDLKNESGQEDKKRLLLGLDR
# [10] = Inhibition of pig brain CK1 delta/epsilon using RRKHAAIGpSAYSITA as substrate; design: species or system Sus scrofa
# [11] = system: SH-SY5Y; experiment: Antiproliferative activity against human SH-SY5Y cells by MTS reduction assay
# [12] = system: DU-145; experiment: Antiproliferative activity against human DU145 cells after 48 hrs by resazurin reduction test; type: functional, cell-based; conditions: DU-145, 48 h
# [13] = Antiproliferative activity against human primary fibroblasts after 48 hrs by resazurin reduction test; type: cell-based; conditions: Fibroblast
Compound,IC50 [1] [µM],IC50 [2] [µM],IC50 [3] [µM],IC50 [4] [µM],IC50 [5] [µM],IC50 [6] [µM],IC50 [7] [µM],IC50 [8] [µM],IC50 [9] [µM],IC50 [10] [µM],IC50 [11] [µM],IC50 [12] [µM],IC50 [13] [µM]
CC(=O)Nc1ccc(-c2cnc(N)nc2-c2c[nH]c3ccc(Br)cc23)cc1,> 10,> 10,0.4,4.15,> 10,> 10,> 10,0.75,6.8,2.1,> 10,,
Nc1ncc(-c2ccc(C(F)(F)F)cc2)c(-c2c[nH]c3cccc(Br)c23)n1,> 10,> 10,1,1.85,> 10,> 10,> 10,1.3,4.7,> 10,> 10,,
Nc1ncc(-c2ccc(C(F)(F)F)cc2)c(-c2c[nH]c3ccc(Br)cc23)n1,> 10,> 10,2,> 10,> 10,> 10,> 10,> 10,> 10,> 10,> 10,,
Nc1ncc(-c2ccc(C(F)(F)F)cc2)c(-c2c[nH]c3cc(Br)ccc23)n1,> 10,> 10,6.1,> 10,> 10,> 10,> 10,> 10,> 10,> 10,> 10,,
COc1cccc(-c2cnc(N)nc2-c2c[nH]c3cccc(Br)c23)c1,> 10,> 10,1.4,0.81,> 10,> 10,> 10,1.3,6,> 10,> 10,,
COc1cccc(-c2cnc(N)nc2-c2c[nH]c3ccc(Br)cc23)c1,> 10,18,1.2,5.65,20,> 25,> 10,2.5,7.6,2.2,> 25,,
COc1cccc(-c2cnc(N)nc2-c2c[nH]c3cc(Br)ccc23)c1,> 10,16,4.5,8.2,18,> 25,> 10,2.3,> 10,3.2,> 25,,
Nc1nccc(-c2c[nH]c3cc([N+](=O)[O-])ccc23)n1,,> 25,> 10,1.1,> 25,> 25,,0.38,> 10,6.3,> 25,,
Nc1nccc(-c2c[nH]c3c([N+](=O)[O-])cccc23)n1,,> 25,> 10,0.085,> 25,> 25,,0.07,6.3,10,> 25,,
Nc1ncc(I)c(-c2c[nH]c3ccc([N+](=O)[O-])cc23)n1,26,20,0.66,0.25,10,> 25,8.4,0.12,1.6,0.42,> 25,13.3,19
Nc1ncc(I)c(-c2c[nH]c3cc([N+](=O)[O-])ccc23)n1,11,18,2.6,0.095,10,> 25,2,0.067,1.6,1,12,6.3,13
Nc1ncc(I)c(-c2c[nH]c3c([N+](=O)[O-])cccc23)n1,6,> 10,> 10,0.46,> 10,> 10,3.2,0.041,> 10,> 10,> 10,5.2,4.7
Nc1ncc(I)c(-c2c[nH]c3ccccc23)n1,10.6,7.3,3.7,0.066,10,17,3.3,0.03,1.4,0.9,7.5,5,8
